Measured values taken from publication PMC6222329 (Molecules : A Journal of Synthetic Chemistry and Natural …, 2018).

Key:
[1] = biological target: T1, AChE (Electrophorus electricus) (Electrophorus electricus, UniProt O42275); assay: AChE inhibition, Ellman's method; assay type: biochemical
T1 construct: purchased Sigma-Aldrich (Steinheim, Germany)
Procedure: (§1) The assay was performed in two steps.
(§2) All enzymes were obtained from Sigma-Aldrich (Steinheim, Germany). Ellman’s reagent and the substrates were obtained from Fluka (Buchs, Switzerland). The chemicals used to prepare the buffer solution were purchased from Merck (Darmstadt, Germany).
(§3) The enzyme inhibitory activities of the synthesized compounds were investigated by applying Ellman’s method. Enzyme solutions were dissolved in gelatin solution (1%; 2.5 units/mL). […] Then, the reaction was initiated by the addition of Ellman’s reagent 5,5′-Dithiobis(2-nitrobenzoic acid) (DTNB; 20 µL/well, 10 mM) and the substrate (10 µL/well, 75 mM). […] The enzyme solution was processed as a control. All readings were adjusted with blank-reading. All assays were performed in four independent wells. […] Absorbance differences between the two readings were taken, and percentage inhibition rates were calculated according to the following formula: % Inhibition=[(A(C)−A(B))−(A(I)−A(B))]/(A(C)−A(B))×100.
(§4) • Blank (B): the well in which the inhibitor compound and substrate were not added; • Control (C): the well where the inhibitor compound was not added; • A(B): the difference in absorbance reading for the blank; • A(C): the difference in absorbance reading for the control; • A(I): the difference in absorbance reading for the inhibitor compounds.

AChE (Human) = biological target: T2, AChE (Human) (Homo sapiens, UniProt P22303); assay: AChE inhibition, Ellman's method; assay type: biochemical
T2 construct: purchased Sigma-Aldrich (Steinheim, Germany)
Procedure: as §1, §2, §3, §4

BChE (Equine) = biological target: T3, BChE (Equine) (Equus caballus, UniProt P81908); assay: biochemical; assay type: biochemical
T3 construct: purchased Sigma-Aldrich (Steinheim, Germany)
Procedure: as §1, §2, §3, §4

BChE (Human) = biological target: T4, BChE (Human) (Homo sapiens, UniProt P06276); assay: BChE inhibition, Ellman's method; assay type: biochemical; settings: for IC50: read-out: BChE (Human) IC50
T4 construct: purchased Sigma-Aldrich (Steinheim, Germany)
Procedure: as §1, §2, §3, §4

[2] = test system: murine fibroblast healthy cell line (NIH3T3); assay: MTT cell viability assay; assay type: cell-based; settings: 24 h, 0.000316 µM to 1000 µM, read-out: IC50 against NIH3T3
Procedure: The active compounds (4a, 4b, 4e, 4i, 4m, 4n, 4o, and 4t) were chosen to determine their cytotoxic activity toward a murine fibroblast healthy cell line (NIH3T3). After incubating the cells with active compounds at concentrations of 0.000316 µM to1000 µM for 24 h, the cell viability was measured using the 3-(4,5-dimethylthiazol-2-yl)-2,5-diphenyltetrazolium (MTT) assay. The inhibition percentage was calculated for each concentration of the test compounds. The IC50 values of the compounds were determined using a non-linear regression analysis over the calculated percentage inhibition values, and they are presented in Table 2. Accordingly, the cytotoxicity test proposed that the active derivatives were nontoxic against NIH3T3 cells at their active concentrations against BChE.
Healthy murine embryonic fibroblast cells (NIH3T3 cell line) were used for the cytotoxicity tests. The cell line and selected compounds were prepared for an MTT assay as reported previously. The optical densities (OD) of 96 well plates were recorded at 540 nm. […]

T3 sequence (P81908 whole entry): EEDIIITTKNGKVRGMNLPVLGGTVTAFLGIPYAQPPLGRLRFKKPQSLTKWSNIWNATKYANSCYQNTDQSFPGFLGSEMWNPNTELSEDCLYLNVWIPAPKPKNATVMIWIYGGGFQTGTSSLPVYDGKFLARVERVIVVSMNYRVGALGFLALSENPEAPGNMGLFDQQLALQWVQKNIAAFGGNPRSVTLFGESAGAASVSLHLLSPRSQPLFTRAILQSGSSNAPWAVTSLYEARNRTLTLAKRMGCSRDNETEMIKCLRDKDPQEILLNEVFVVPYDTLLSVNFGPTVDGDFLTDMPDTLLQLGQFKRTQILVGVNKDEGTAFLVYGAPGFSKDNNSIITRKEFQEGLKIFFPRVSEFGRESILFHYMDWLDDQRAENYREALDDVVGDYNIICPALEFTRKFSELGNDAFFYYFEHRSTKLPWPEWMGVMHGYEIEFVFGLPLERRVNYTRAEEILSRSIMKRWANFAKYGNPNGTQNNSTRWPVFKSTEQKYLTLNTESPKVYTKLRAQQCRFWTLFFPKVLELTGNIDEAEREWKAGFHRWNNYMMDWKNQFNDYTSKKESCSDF
T4 sequence (P06276 29-602): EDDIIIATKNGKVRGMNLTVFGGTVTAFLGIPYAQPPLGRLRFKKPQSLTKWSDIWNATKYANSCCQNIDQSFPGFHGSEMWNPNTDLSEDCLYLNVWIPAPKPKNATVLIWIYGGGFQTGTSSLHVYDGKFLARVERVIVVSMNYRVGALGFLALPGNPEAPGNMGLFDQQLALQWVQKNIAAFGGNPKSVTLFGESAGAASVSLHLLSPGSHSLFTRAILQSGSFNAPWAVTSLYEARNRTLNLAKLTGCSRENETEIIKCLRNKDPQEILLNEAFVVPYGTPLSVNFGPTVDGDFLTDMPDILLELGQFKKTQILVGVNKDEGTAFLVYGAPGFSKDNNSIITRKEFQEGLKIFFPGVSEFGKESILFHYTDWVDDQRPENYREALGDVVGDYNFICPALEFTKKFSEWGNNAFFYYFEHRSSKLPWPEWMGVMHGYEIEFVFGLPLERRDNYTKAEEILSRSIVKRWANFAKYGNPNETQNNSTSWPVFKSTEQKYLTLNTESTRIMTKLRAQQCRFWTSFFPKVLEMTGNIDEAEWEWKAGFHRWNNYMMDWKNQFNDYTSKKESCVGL
T2 sequence (P22303 32-614): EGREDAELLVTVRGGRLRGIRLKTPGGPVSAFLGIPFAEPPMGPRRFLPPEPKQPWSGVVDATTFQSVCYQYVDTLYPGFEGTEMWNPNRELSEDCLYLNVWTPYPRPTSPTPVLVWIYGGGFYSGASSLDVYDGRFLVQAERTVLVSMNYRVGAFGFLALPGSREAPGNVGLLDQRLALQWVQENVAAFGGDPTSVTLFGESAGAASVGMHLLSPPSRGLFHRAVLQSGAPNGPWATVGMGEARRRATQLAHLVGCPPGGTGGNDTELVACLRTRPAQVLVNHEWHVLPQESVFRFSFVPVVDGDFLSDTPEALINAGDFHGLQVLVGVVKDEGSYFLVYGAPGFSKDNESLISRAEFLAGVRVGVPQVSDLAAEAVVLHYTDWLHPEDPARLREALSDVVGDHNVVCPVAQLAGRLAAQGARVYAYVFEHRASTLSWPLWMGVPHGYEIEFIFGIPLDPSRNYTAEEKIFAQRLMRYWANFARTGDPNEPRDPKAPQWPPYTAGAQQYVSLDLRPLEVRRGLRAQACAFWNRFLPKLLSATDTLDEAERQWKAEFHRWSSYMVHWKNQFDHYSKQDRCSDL
T1 sequence (O42275 24-633): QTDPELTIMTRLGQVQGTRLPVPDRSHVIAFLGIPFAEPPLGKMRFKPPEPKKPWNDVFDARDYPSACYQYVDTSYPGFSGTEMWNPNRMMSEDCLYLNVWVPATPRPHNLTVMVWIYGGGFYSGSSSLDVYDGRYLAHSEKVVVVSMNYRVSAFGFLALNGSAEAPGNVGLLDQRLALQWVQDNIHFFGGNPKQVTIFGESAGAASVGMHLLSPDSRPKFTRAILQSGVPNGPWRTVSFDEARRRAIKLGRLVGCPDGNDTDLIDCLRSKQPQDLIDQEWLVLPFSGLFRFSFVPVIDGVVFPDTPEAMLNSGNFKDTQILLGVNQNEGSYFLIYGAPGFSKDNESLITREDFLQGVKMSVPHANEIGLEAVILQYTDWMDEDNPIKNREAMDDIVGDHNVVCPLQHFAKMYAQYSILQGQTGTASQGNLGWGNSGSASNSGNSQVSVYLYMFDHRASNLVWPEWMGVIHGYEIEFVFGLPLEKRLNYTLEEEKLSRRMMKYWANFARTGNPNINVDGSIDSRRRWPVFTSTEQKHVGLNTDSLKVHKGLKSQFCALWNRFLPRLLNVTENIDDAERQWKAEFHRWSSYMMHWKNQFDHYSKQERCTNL

Structure (SMILES) | AChE (Electrophorus electricus) inhibitory activity (%) ± SD ([1]; 10^-3 M) | AChE (Electrophorus electricus) inhibitory activity (%) ± SD ([1]; 10^-4 M) | AChE (Human) inhibitory activity (%) ± SD (AChE (Human); 10^-3 M) | AChE (Human) inhibitory activity (%) ± SD (AChE (Human); 10^-4 M) | IC50 (BChE (Equine)) | BChE (Equine) inhibitory activity (%) ± SD (BChE (Equine); 10^-3 M) | BChE (Equine) inhibitory activity (%) ± SD (BChE (Equine); 10^-4 M) | BChE (Equine) inhibitory activity (%) ± SD (BChE (Equine); 10^-5 M) | BChE (Equine) inhibitory activity (%) ± SD (BChE (Equine); 10^-6 M) | BChE (Equine) inhibitory activity (%) ± SD (BChE (Equine); 10^-7 M) | BChE (Equine) inhibitory activity (%) ± SD (BChE (Equine); 10^-8 M) | BChE (Equine) inhibitory activity (%) ± SD (BChE (Equine); 10^-9 M) | BChE (Human) inhibitory activity (%) ± SD (BChE (Human); 10^-3 M) | BChE (Human) inhibitory activity (%) ± SD (BChE (Human); 10^-4 M) | BChE (Human) inhibitory activity (%) ± SD (BChE (Human); 10^-5 M) | BChE (Human) inhibitory activity (%) ± SD (BChE (Human); 10^-6 M) | BChE (Human) inhibitory activity (%) ± SD (BChE (Human); 10^-7 M) | BChE (Human) inhibitory activity (%) ± SD (BChE (Human); 10^-8 M) | BChE (Human) inhibitory activity (%) ± SD (BChE (Human); 10^-9 M) | IC50 (BChE (Human)) | further results
CN(C)CCN1CCN(C(=S)SCC(=O)Nc2c3ccccc3nc3ccccc23)CC1 [Compound 4a, 2-(9-Acridinylamino)-2-oxoethyl 4-(2-(dimethylamino)ethyl)piperazine-1-carbodithioate] | 60.13±1.54% | 17.03 ± 0.48% | 62.20±1.05% | 18.15 ± 0.51% | 0.226 ± 0.008 µM | 99.13±3.21% | * 91.13 ± 2.94% | 84.80±2.76% | 52.10±1.04% | 39.90±0.81% | 28.24±0.54% | 19.69±0.99% | 98.50±2.46% | * 93.25 ± 2.24% | 86.20±1.46% | 55.00±1.11% | 36.21±0.97% | 30.20±0.68% | 15.79±0.81% | 0.243 ± 0.009 µM | IC50 [2]: 26.8 µM
O=C(CSC(=S)N1CCN(CCO)CC1)Nc1c2ccccc2nc2ccccc12 [Compound 4e, 2-(9-Acridinylamino)-2-oxoethyl 4-(2-hydroxyethyl)piperazine-1-carbodithioate] | 48.67±1.51% | 7.09 ± 0.64% | 50.22±1.12% | 10.13 ± 0.51% | 1.42 ± 0.068 µM | 97.00±3.16% | * 95.98 ± 2.88% | 57.53±1.89% | 29.52±1.07% | 24.26±0.54% | 18.89±0.84% | 10.77±0.58% | 98.95±2.10% | * 96.57 ± 2.03% | 55.00±1.20% | 30.62±1.28% | 26.54±0.74% | 17.89±0.53% | 8.72±0.30% | 1.37 ± 0.057 µM | IC50 [2]: 325 µM
O=C(CSC(=S)N1CCN(c2ccc(Cl)cc2)CC1)Nc1c2ccccc2nc2ccccc12 [Compound 4i, 2-(9-Acridinylamino)-2-oxoethyl 4-(4-chlorophenyl)piperazine-1-carbodithioate] | 86.41±2.91% | 35.91 ± 1.57% | 89.20±1.25% | 33.85 ± 1.15% | 2.04 ± 0.068 µM | 99.37±3.41% | * 69.51 ± 1.16% | 44.32±0.79% | 38.72±0.82% | 33.65±0.45% | 26.52±0.80% | 25.73±0.70% | 98.22±2.14% | * 72.90 ± 1.08% | 42.99±1.02% | 35.00±0.87% | 30.49±0.56% | 21.77±0.40% | 20.69±0.38% | 2.1 ± 0.085 µM | IC50 [2]: > 1000 µM
Cc1ccc(CN2CCN(C(=S)SCC(=O)Nc3c4ccccc4nc4ccccc34)CC2)cc1 [Compound 4o, 2-(9-Acridinylamino)-2-oxoethyl 4-(4-methylbenzyl)piperazine-1-carbodithioate] | 94.97±3.61% | 25.30 ± 1.01% | 90.29±2.18% | 30.45 ± 1.15% | 1.07 ± 0.051 µM | 98.64±3.86% | * 74.83 ± 2.17% | 46.33±0.91% | 42.99±0.97% | 35.48±0.67% | 25.36±0.49% | 16.54±0.56% | 99.25±2.63% | * 75.25 ± 2.08% | 48.19±1.12% | 41.37±0.95% | 37.90±0.71% | 24.71±0.55% | 20.80±0.48% | 1.07 ± 0.039 µM | IC50 [2]: > 1000 µM
O=C(CSC(=S)N1CCN(C(c2ccccc2)c2ccccc2)CC1)Nc1c2ccccc2nc2ccccc12 [Compound 4m, 2-(9-Acridinylamino)-2-oxoethyl 4-benzhydrylpiperazine-1-carbodithioate] | 71.23±2.15% | 25.43 ± 1.21% | 75.18±1.21% | 27.38 ± 1.10% | 0.092 ± 0.001 µM | 99.65±3.86% | * 98.96 ± 3.47% | 90.78±3.92% | 80.30±2.56% | 40.34±0.61% | 30.24±0.70% | 18.98±0.20% | 98.18±2.71% | * 97.50 ± 2.06% | 92.54±2.45% | 81.25±2.08% | 44.61±0.79% | 29.11±0.63% | 17.00±0.33% | 0.093 ± 0.002 µM | fold better BChE inhibition in comparison with donepezil (BChE (Human); ratio of IC50 values): 15.4 fold; IC50 [2]: 214 µM
